In patent US9321742B2, “N1-cyclic amine-N5-substituted biguanide derivatives, methods of preparing the same and pharmaceutical composition comprising the same” (IMMUNOMET THERAPEUTICS INC., priority 2011, dated 2016):

Tests used:
[1] = system: HCT116 cells; assay: Measurement of effect of inhibiting cancer cell proliferation (MTT); assay type: cell-based; conditions: Homo sapiens; for inhibition at 100 µM: HCT-116, 100 uM, read-out: Cell Growth Inhibition (%) at 100 uM; for GI50: HCT-116, 48 hours
From the text: HCT116 cells derived from human colorectal cancer (commercially available from the Korean Cell Line Bank) were used, and the effect of inhibiting cancer cell proliferation of the biguanide derivative was confirmed by measuring the concentration value (cell growth inhibition concentration, GIC50) at which cell growth was inhibited by 50% using a 3-(4,5-dimethylthiazol-2-yl)-2,5-[…] bromide (MTT) reagent.
First, HCT116 cells were put on a 96-well plate and cultured in a DMEM medium containing 10% fetal bovine serum for 16 hours so that the cellcount in each well was approximately 5,000. Subsequently, to obtain the GIC50 value of each compound, culture media were treated with 100 μM, 25 μM, 6.25 μM, 1.56 μM or 0.39 μM of the compound, and then cultured for 48 hours. At this time, some of the compounds were treated with 200 μM instead of 100 μM. Metformin hydrochloride was used as the control, and the culture media were treated with 25, 12.5, 2.5, 0.5, 0.1 mM metformin hydrochloride, and then tested in the same manner as described in the derivatives synthesized in the examples. In order to determine whether the cells survived after treatment with the compound, MTT was added to the culture media which were then cultured for another 3 hours. Formed formazane crystals were dissolved using dimethyl sulfoxide (DMSO), and the absorbance of the resulting solution was measured at 560 nm. After the 48-hours culture, the ratio of the cell count cultured on a well plate not treated with the compound to the living cell count on a well plate treated with the compounds synthesized in the examples was indicated as cell viability (%) according to each treated concentration. A cell viability curve graph was plotted and the concentration (GIC50) value of the compound at which the growth was inhibited by 50% was calculated to confirm the effect of inhibition of cancer cell proliferation. Also, the cell growth viability (%) when the concentration of the treated biguanide derivative and the metformin hydrochloride as the control were 100 uM was shown.

[2] = system: AMPKα; assay: Measurement of AMPK-activation effect (AMPKα Thr172 phosphorylation immunoassay in MCF7 cells); assay type: cell-based, human; conditions: 24 hours; for AMPK activation effect 10 uM (%) / AMPK activation effect 50 uM (%): relative to untreated cells
Protocol: MCF7 cells derived from human breast cancer cells (commercially available from the Korean Cell Line Bank) were used, and the AMPK (5′-AMP-activated protein kinase alpha)-activation effect of the biguanide derivative was confirmed using an AMPKα immunoassay kit (Invitrogen, Catalog No. KH00651).
MCF7 cells were cultured in a DMEM medium supplemented with 10% fetal bovine serum. Thereafter, the cultured MCF7 cells were put into a 6-well plate with approximately 5×10^5 cells per well and cultured in an incubator supplied with 5% CO2. Culture media were treated with the derivatives synthesized in the examples at contents of 5, 10 and 50 μM, and then cultured for 24 hours. Metformin hydrochloride was used as the control, and the culture media were treated with 0.05, 0.5, 1, 2, 5 and 10 mM metformin hydrochloride, and then tested in the same manner as described in the derivatives synthesized in the examples. Subsequently, the cells were lysed according to a method presented in the operation manual of the AMPKα immunoassay kit, and 20 μg of a cell lysate was then yielded through protein assay. Thereafter, the AMPK activation effect was obtained by determining the degree of phosphorylation of 172nd threonine residue (Thr172) of the AMPKα from the cell lysate according to the method presented in the operation manual of the AMPKα immunoassay kit. […] A curve graph showing AMPK activation according to the concentration of the treated compounds was plotted based on the obtained AMPKα activation results, the concentration (activation concentration 150, AC150) value of the compound whose AMPK activation reached 150% was calculated using a GraphPad Prism 5.0 program, and the degrees of AMPK activation were obtained when concentrations of the treated biguanide derivatives were 10 μM and 50 μM and the metformin hydrochloride was 50 μM.

SMILES | inhibition at 100 µM ([1]; 48 hours) | GI50 [1] | melting point | AMPK activation effect 10 uM (%) [2] | AC150 (concentration at which AMPK activation reached 150%) [2] | AMPK activation effect 50 uM (%) [2] | inhibition at 200 µM ([1]; HCT-116, 200 uM, 48 hours, read-out: Cell Growth Inhibition (%) at 200 uM)
Cl.N=C(NCc1c(F)cccc1F)NC(=N)N1CCCCC1 [Example 51, N1-piperidine-N5-(2,6-difluoro)benzyl biguanide hydrochloride] | 96.8% | > 100 µM | 229 to 232 °C | 179% | 2.1 µM |  | 
Cl.N=C(NCc1ccc(F)c(F)c1)NC(=N)N1CCCCC1 [Example 52, N1-piperidine-N5-(3,4-difluoro)benzyl biguanide hydrochloride] | 46.5% | 76.4 µM | 230 to 232 °C | 327% | 3.8 µM | 703% | 
Cl.N=C(NCc1ccc(Cl)cc1Cl)NC(=N)N1CCCCC1 [Example 53, N1-piperidine-N5-(2,4-dichloro)benzyl biguanide hydrochloride] | 63.7% | 9.1 µM | 240 to 241 °C | 238% | 3.5 µM | 831% | 
Cl.N=C(NCc1ccc(Cl)c(Cl)c1)NC(=N)N1CCCC1 [Example 54, N1-pyrrolidine-N5-(3,4-dichloro)benzyl biguanide hydrochloride] | 98% | 21.1 µM | 219 to 221 °C | 315% | 0.8 µM |  | 
Cl.N=C(NCc1ccc(Cl)c(Cl)c1)NC(=N)N1CCCCC1 [Example 55, N1-piperidine-N5-(3,4-dichloro)benzyl biguanide hydrochloride] | 97.7% | 10.3 µM | 242 to 244 °C | 443% | 0.9 µM | 830% | 
Cl.N=C(NCCc1cccs1)NC(=N)N1CCCCC1 [Example 56, N1-piperidine-N5-(thiophene-2-yl)ethyl biguanide hydrochloride] | 97.6% |  | 176 to 178 °C | 612% | 9.0 µM |  | 
Cl.N=C(NCCc1ccccc1)NC(=N)N1CCCC1 [Example 57, N1-pyrrolidine-N5-(phenethyl)biguanide hydrochloride] |  | > 200 µM | 213 to 215 °C |  | 8.1 µM | 391% | 23.2%
Cl.N=C(NCCc1ccccc1)NC(=N)N1CCCCC1 [Example 58, N1-piperidine-N5-(phenethyl)biguanide hydrochloride] | 32.3% | 43.2 µM | 235 to 237 °C | 167% | 6.4 µM | 388% | 
Cl.N=C(NCCc1ccccc1)NC(=N)N1CCCCCC1 [Example 59, N1-azepane-N5-(phenethyl)biguanide hydrochloride] | 56.6% | 21.9 µM | 211 to 213 °C | 194% | 0.7 µM | 373% | 
Cl.N=C(NCCc1ccc(F)cc1)NC(=N)N1CCCCCC1 [Example 60, N1-azepane-N5-((4-fluoro)phenethyl)biguanide hydrochloride] | 73.7% | 22.4 µM | 211 to 212 °C | 744% | 0.7 µM | 721% | 
Cl.N=C(NCCc1ccc(Cl)cc1)NC(=N)N1CCCCCC1 [Example 61, N1-azepane-N5-((4-chloro)phenethyl)biguanide hydrochloride] | 94.3% | 19.8 µM | 181 to 183 °C | 1130% | 0.5 µM |  | 
